Source: patent US9655822B2, “Hydrated lamellar phases or liposomes which contain a fatty monoamine or a cationic polymer which promotes intracellular penetration, and a cosmetic or pharmaceutical composition containing same, as well as a method of screening such a substance” (BASF Beauty Care Solutions France S.A.S., priority 2004, dated 2017)

Key:
[1] = test system: normal human fibroblasts; test: Cell viability in the screening of functionalising molecules; settings: 1% of molecule (25 kDa PEI: 50 μM), 96-well plate
Description: 250 μl of liposomal suspension is added onto cultures of normal human fibroblasts extracted from abdominal plasy and cultivated in a 96-well plate. Each concentration is tested on 6 different wells. The cell viability is evaluated by a test with paranitrophenylphosphate which determines the intracellular alkaline phosphatase activity after three rinses with pH 7.4 phosphate buffer. The percentage of living cells is calculated with respect to a control made without the addition of liposome in the culture well (n=6).
55 molecules are firstly tested in triplicate, in comparison with the 50 μM 25 kDa PEI. The intracellular penetration is quantified after 24 hours of incubation on normal human fibroblasts cultivated in 24-well plates as described in Example 2. The cell viability is estimated in a 96-well plate with 200 μl of liposomal suspension.
The intracellular penetration and the cytotoxicity are evaluated as described in Example 2.

[2] = Encapsulation of fluorescent tracer in soya lecithin liposomes (yield, leak); type: physicochemical
Description: 0.5 g of soya lecithin, 0.01% of fluorescent tracer which is pre-solubilised according to the recommendations of the provider, are introduced into a dish and is diluted in 10 ml of Trizma buffer. After magnetic agitation for 30 minutes at ambient temperature, the mixture is vigorously homogenised for 10 minutes, in thus obtaining a liposomal solution in which the liposomes have an average size which can vary between 100 and 800 nanometres according to the exact conditions of homogenisation.
The aim of the purification step is to separate the non-encapsulated tracer fraction from the fraction of tracer which is encapsulated in the liposomes. For this, the liposomal solution is centrifuged in a conical tube for 10 minutes at 1,790 g at ambient temperature. The plugs are then recovered and then solubilised in 10 ml of culture medium.
Liposomes are prepared according to the method described in Example 5 with increasing concentrations of 25 kDa PEI from 0 to 100 μM. After centrifugation at 1,790 g for 10 minutes, the supernatants are quantified by spectrofluorimetry. The yields of encapsulation are calculated with respect to the initial concentration.

[3] = test system: normal human fibroblasts; test: Intracellular penetration of fluorescent tracers, free or in liposomes (spectrofluorimetry); type: cell-based; settings: for cell-permeating: free probe; for Penetration (fluorescence after washing): 0.01% tracer in liposomes; for Penetration (fluorescence after washing) / Penetration free probe: 24 hours, gain (45 PFB-F, 50 TRITC); for Penetration in liposome: probe encapsulated in liposome
Excerpt: (§1) The selection of the tracer necessitated the preparation and the purification of liposomes, according to the protocol described in Example 1, these liposomes containing varying concentrations of the various hydrosoluble or liposoluble tracers (Table 1, Annex 1). The controls—a free fluorescent tracer—are made by dissolution at the same concentration of fluorescent tracer in the dilution buffer, so as to quantify its cytotoxicty and its spontaneous penetration in the fibroblasts.
Practically, after extraction from a biopsy originating from abdominal plastic surgery, the fibroblasts are amplified in DF medium, i.e.: DMEM (Dulbecco's Modified Eagle's Medium)/Ham F12 glutamax 50/50 volume/volume, supplemented with 10% of calf serum, with penicillin at a final concentration of 100 UI/millilitre, with gentamicin at a final concentration of 1 microgram/millilitre, with amphotericin B at a final concentration of 1 microgram/millilitre.
Firstly, after centrifugation, the purified liposomes are taken up into DF culture medium, homogenised in a vortex, and are deposited at the rate of 1 ml per well on the fibroblasts cultivated in 24-well plates (Costar MW24). The controls are made under the same conditions. A non-treated control is also made.
(§2) The fibroblasts are incubated for 24 hours at 37° C. in the presence of the liposomes, and are then rinsed 3 times in pH 7.4 phosphate buffer. First of all, the fluorescence is evaluated dry by spectrofluorimetry with a Cytofluor 4000® (Millipore). Secondly, the intracellular fluorescence is observed for the molecules of interest on an Olympus® reverse microscope (IX70) by using the corresponding excitation filter (objective ×10, ×40 and ×100). Finally, the cytotoxicity of the fluorescent tracers is evaluated in a 96-well plate by incubation for 24 hours as described in Example 1.
The intracellular penetration of liposomes which contain 5% of soya lecithin, 0.01% of PFB-F or TRITC in the presence or not of 0.5% 25 kDa polyethylenimine (PEI), which are prepared according to the protocol described in Example 1, is analysed after incubation for 24 hours on human fibroblasts cultivated in a 24-well plate, as described in Example 2.

[4] = test system: normal human fibroblasts; test: Cytotoxicity of the fluorescent tracers (paranitrophenylphosphate test); type: cell-based; settings: for Cell viability (% of untreated control): incubation 24 hours
Description: Each concentration is tested on 6 different wells.
as §1, §2

[5] = target: T1, tyrosinase (Homo sapiens, UniProt P14679); test: Tyrosinase activity in melanocytes (L-DOPA/MBTH); type: cell-based; set-up: unit not given here; settings: 66 hours; for Depigmenting effect: rate of enzymatic reaction (tyrosinase activity), Free: active applied free, normal human melanocytes; for Depigmenting effect: rate of enzymatic reaction (tyrosinase activity), PEI Liposome: active in 10 μM PEI functionalised liposome; for Depigmenting effect: rate of enzymatic reaction (tyrosinase activity), Soya liposome: active in 2% quaternised soya liposome; for Depigmenting effect: rate of enzymatic reaction (tyrosinase activity), Lipsosome: active in 5% lecithin liposome
T1 construct: on normal human melanocytes cultivated in 24-well plates and pre-confluent; endogenous in cells; host or cells: normal human melanocytes
T1 sequence (P14679 19-529): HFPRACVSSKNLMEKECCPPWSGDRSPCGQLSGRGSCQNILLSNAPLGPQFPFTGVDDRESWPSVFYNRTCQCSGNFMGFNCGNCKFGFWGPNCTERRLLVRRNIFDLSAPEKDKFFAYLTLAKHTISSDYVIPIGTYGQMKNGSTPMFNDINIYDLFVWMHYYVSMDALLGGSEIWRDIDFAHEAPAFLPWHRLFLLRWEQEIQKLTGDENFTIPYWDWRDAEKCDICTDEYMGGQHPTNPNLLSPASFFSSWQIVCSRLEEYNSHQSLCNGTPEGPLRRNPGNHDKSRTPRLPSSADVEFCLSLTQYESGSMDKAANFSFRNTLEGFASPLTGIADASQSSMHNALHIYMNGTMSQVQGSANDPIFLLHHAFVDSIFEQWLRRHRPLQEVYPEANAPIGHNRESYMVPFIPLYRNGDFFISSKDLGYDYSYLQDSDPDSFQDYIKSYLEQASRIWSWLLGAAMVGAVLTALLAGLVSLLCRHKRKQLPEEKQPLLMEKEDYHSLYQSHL
Description: Actives are also co-encapsulated: Phytolight® (Coletica, Lyons, France) without 0.05% preservative (cocktail of plant actives), 0.05% arbutine and 1 mM catechin (Sigma). […] The actives which are liposomed or not are incubated for 66 hours at 37° C. under 5% CO2 in MMK2 medium (Sigma). […] The formation of a MBTH-o-quinone compound is characterised by an absorbance value at 490 nm quantified kinetically. The tyrosinase activity is expressed by the slope (rate) of the enzymatic reaction.

CCCCCCCCCCCCCCCCCC[N+](C)(C)Cc1ccccc1.[Cl-] [Stearalkonium chloride, benzyldimethyl (octadecyl) ammonium chloride]
Viability [1]: 37.4%

CCCCCCCCNCCCCCCCC [Dioctylamine 2 C8, Dioctylamine]
Viability [1]: 34.7%

CC(O)CN(CCN(CC(C)O)CC(C)O)CC(C)O (stereo not shown) [Tetrahydroxypropyl ethylenediamine]
Viability [1]: 95.3%

carboxy dichlorofluorescein [#C-369 carboxy dichlorofluorescein]
Encapsulated [2]: Yes | leak [2]: Yes | cell-permeating [3]: Yes

CCCCCCCCCCCCCCCCCCN [Octadecylamine C18, Octadecylamine]
Viability [1]: 61.2%

CCCCCCCCCCNCCCCCCCCCC [Didecylamine 2 C10, Didecylamine]
Viability [1]: 28.3%

tetramethylrhodamine isothiocyanate [TRITC]
Encapsulated [2]: Yes | Toxicity [4]: No | cytotoxicity (in words) [4]: slightly cyctotoxic | Cell viability (% of untreated control) [4]: 74.8% | Penetration (fluorescence after washing) [3]: 1,119 (gain 50) | penetration when added free in the culture medium (in words) ([3]; free tracer): penetrates slightly | Penetration free probe ([3]; free tracer): 295 (gain 50) | Penetration in liposome [3]: Yes

CCCCCCCCCCCCCN [Tridecylamine C13, Tridecylamine]
Viability [1]: 62.6%

Catechin
Depigmenting effect: rate of enzymatic reaction (tyrosinase activity), Free [5]: 0.007 | Depigmenting effect: rate of enzymatic reaction (tyrosinase activity), PEI Liposome [5]: 0 | Depigmenting effect: rate of enzymatic reaction (tyrosinase activity), Soya liposome [5]: 0.003 | Depigmenting effect: rate of enzymatic reaction (tyrosinase activity), Lipsosome [5]: 0.007

O=S(=O)([O-])c1cc(O)c2ccc3c(S(=O)(=O)[O-])cc(S(=O)(=O)[O-])c4ccc1c2c34.[Na+].[Na+].[Na+] [hydroxypyrene trisulfonic acid, trisodium salt]
Encapsulated [2]: No | cell-permeating [3]: No | Penetration in liposome [3]: No

sulfo fluorescein diacetate [#S-1129 sulfo fluorescein diacetate]
Toxicity [4]: No | cell-permeating [3]: no | Penetration in liposome [3]: Very low

carboxyethyl carboxyffluorescein [#B-1151 carboxyethyl carboxyffluorescein]
Encapsulated [2]: No

CCCCCCCCCCCN [Undecylamine C11, Undecylamine]
Viability [1]: 84%

CCCCCCCCCCCCCCCN [Pentadecylamine C15, Pentadecylamine]
Viability [1]: 73%

CCCCNCCCC [Dibutylamine 2 C4, Dibutylamine]
Viability [1]: 75.7%

CCCCCCN [Hexylamine C6, Hexylamine]
Viability [1]: 82.1%

CCCCCCCCCCN [Decylamine C10, Decylamine]
Viability [1]: 68.5%

OC[C@H]1O[C@@H](Oc2ccc(O)cc2)[C@H](O)[C@@H](O)[C@@H]1O [Arbutin]
Depigmenting effect: rate of enzymatic reaction (tyrosinase activity), Free [5]: 0.004 | Depigmenting effect: rate of enzymatic reaction (tyrosinase activity), PEI Liposome [5]: 0 | Depigmenting effect: rate of enzymatic reaction (tyrosinase activity), Soya liposome [5]: 0 | Depigmenting effect: rate of enzymatic reaction (tyrosinase activity), Lipsosome [5]: 0.001

CCCN [Propylamine C3, Propylamine]
Viability [1]: 103.3%

CCCCCCCCCCCCN [Dodecylamine C12, Dodecylamine]
Viability [1]: 57%

dextran texas red [#D-3329 dextran texas red]
cell-permeating [3]: No | Penetration in liposome [3]: No

CCCCCCCC/C=C\CCCCCCCCN [Oleylamine C18:1, Oleylamine]
Viability [1]: 87.1%

CCCCCCCN [Heptylamine C7, Heptylamine]
Viability [1]: 39.4%

CCCCCCCCCCCCCCN [Tetradecylamine C14, Tetradecylamine]
Viability [1]: 54.8%

Cc1ccc(N(CC(=O)[O-])CC(=O)[O-])c(OCCOc2cc3cc(-c4ncc(C(=O)[O-])o4)oc3cc2N(CC(=O)[O-])CC(=O)[O-])c1.[K+].[K+].[K+].[K+].[K+] [#F-1200 Fura-2. pentapotassium salt, Fura-2. pentapotassium salt]
Encapsulated [2]: No | Toxicity [4]: No | cell-permeating [3]: No | Penetration in liposome [3]: No

O=C1OC2(c3ccc(O)cc3Oc3cc(O)ccc32)c2ccc(NC(=O)c3c(F)c(F)c(F)c(F)c3F)cc21 [PFB-F, 5-pentafluorobenzoylaminofluorescein]
Encapsulated [2]: Yes | leak [2]: No | Yield (%) of encapsulation of PFB-F ([2]; PEI 0 μM): 89.0% | Yield (%) of encapsulation of PFB-F ([2]; PEI 1 μM): 92.3% | Yield (%) of encapsulation of PFB-F ([2]; PEI 10 μM): 91.0% | Yield (%) of encapsulation of PFB-F ([2]; PEI 50 μM): 87.5% | Yield (%) of encapsulation of PFB-F ([2]; PEI 100 μM): 86.3% | yield of incorporation in the liposomes ([2]; liposomes based on soya lecithin): about 80% | Cell viability (% of untreated control) [4]: 110.7% | Penetration (fluorescence after washing) [3]: 65 (gain 45) | cell-permeating [3]: No | Penetration free probe ([3]; free tracer): 8 (gain 45) | Penetration in liposome [3]: Yes

Lysosensor yellow/blue DND 160 [#L7545L Lysosensor yellow/blue DND 160]
Encapsulated [2]: Yes | leak [2]: Yes | Toxicity [4]: No | cell-permeating [3]: Yes | Penetration in liposome [3]: No

NNC(=O)COc1cc(S(=O)(=O)[O-])c2ccc3c(S(=O)(=O)[O-])cc(S(=O)(=O)[O-])c4ccc1c2c43.[Na+].[Na+].[Na+] [cascade blue hydrazine trisodium salt]
Encapsulated [2]: Yes | Toxicity [4]: No | cell-permeating [3]: No | Penetration in liposome [3]: Very low
